According to US12285401B2, “Pharmaceutical composition comprising trimebutine or pharmaceutically acceptable salt thereof as an active ingredient for prevention or treatment of cancer” (DAEGU-GYEONGBUK MEDICAL INNOVATION FOUNDATION, priority 2019, dated 2025):
One block for each compound: values may come before it.

Columns and labels:
[1] = tested on: A2780-SP cells (ovarian cancer stem cells); assay: Cell viability assay (Cell-titer Glo), A2780-SP sphere cell viability; assay type: cell-based; conditions: for GI50: A2780-SP ovarian cancer stem cells, 1,500 cells per well, Cell-titer Glo; for viability of A2780-SP cells (ovarian cancer stem cells), result in words: 1500 cells, 7 days, Cell titer Glo
[2] = tested on: A2780 cells (ovarian cancer cells); assay: Cell viability assay (Cell-titer Glo), A2780 cell viability; assay type: cell-based; conditions: 3 days
BKCa channel = target: T1, BKCa channel (Homo sapiens, UniProt Q12791); assay: Whole cell patch clamp recording, BKCa channel current in A2780-SP cells; assay type: cell-based; conditions: 10 μM, 5 minutes
T1 construct: K^+ current of the BK channel was measured by increasing the membrane voltage by 10 mV starting at −80 mV; endogenous in cells; host or cells: A2780-SP (ovarian cancer stem cells)
T1 sequence (Q12791 whole entry): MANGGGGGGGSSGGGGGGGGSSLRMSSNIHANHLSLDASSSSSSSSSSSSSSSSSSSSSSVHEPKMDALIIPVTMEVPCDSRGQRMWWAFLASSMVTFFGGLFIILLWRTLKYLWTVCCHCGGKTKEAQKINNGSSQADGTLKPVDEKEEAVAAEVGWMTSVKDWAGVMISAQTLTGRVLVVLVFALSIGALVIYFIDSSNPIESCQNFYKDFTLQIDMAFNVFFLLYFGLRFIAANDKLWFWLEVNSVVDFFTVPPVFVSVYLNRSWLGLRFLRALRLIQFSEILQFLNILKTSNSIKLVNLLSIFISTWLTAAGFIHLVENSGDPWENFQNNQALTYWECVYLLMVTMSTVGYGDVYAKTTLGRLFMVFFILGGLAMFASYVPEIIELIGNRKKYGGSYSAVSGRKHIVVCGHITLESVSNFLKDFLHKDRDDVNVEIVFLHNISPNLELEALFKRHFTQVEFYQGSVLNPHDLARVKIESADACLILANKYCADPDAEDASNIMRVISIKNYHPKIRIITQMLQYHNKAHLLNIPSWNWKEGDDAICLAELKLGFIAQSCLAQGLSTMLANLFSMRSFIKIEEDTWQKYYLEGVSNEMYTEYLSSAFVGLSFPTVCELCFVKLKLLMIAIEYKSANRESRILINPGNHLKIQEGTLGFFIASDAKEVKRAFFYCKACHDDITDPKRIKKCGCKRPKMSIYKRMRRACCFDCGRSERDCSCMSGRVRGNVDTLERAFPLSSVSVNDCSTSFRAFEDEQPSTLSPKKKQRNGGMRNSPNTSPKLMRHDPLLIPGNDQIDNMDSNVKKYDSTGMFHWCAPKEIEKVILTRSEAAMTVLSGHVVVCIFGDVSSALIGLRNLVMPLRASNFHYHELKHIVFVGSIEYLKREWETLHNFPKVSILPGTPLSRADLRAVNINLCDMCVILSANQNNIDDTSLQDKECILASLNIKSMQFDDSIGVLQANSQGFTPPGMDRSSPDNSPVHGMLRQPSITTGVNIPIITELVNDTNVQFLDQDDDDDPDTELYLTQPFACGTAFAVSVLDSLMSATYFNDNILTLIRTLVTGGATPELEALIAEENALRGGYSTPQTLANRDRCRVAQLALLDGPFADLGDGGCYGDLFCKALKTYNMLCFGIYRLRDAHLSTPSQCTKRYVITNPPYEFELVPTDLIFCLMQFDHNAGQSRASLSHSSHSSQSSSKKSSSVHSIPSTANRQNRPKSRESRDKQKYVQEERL

L-type Ca channel = assay: Whole cell patch clamp recording, Ca channel current in A2780-SP cells; assay type: cell-based; conditions: 10 μM, 5 minutes
Na channel = assay: Whole cell patch clamp recording, Na channel current in A2780-SP cells; assay type: cell-based; conditions: 10 μM, 5 minutes
ALDH, OCT4 and SOX2 = assay: Western blotting of markers related to cancer stemness in A2780-SP cells; assay type: cell-based; conditions: 1 μM or 10 μM
Procedure: A2780-SP cells (ovarian cancer stem cells) were plated in an ultra-low attachment 6-well plate (Corning) at the density of 4×10^5 viable cells per well and cultured in a cancer stem cell medium. On the next day of culture, the medium was replaced with NBM (Neuro Basal Medium), and the cells were cultured for 16 hours in starvation. Then, the cells were treated with the compound of Example 1 at the concentration of 1 μM or 10 μM for 1 hour. The medium was replaced with a cancer stem cell medium containing the compound, and the cells were collected and cultured for an additional 30 minutes before being lysed in RiPA buffer. The extracted protein was separated by SDS-PAGE gel and transferred to a PVDF membrane for Western blotting. […]
Signals were developed on an enhanced chemiluminescence HRP substrate (Bio-Rad) and detected using LAS-3000 mini (Fuji film). The signals were quantified using Image J software (NIH Image).
In order to confirm the anticancer effect through the changes in the expressions of the markers related to sternness and the proteins related to survival and proliferation of cancer stem cells according to the treatment of the pharmaceutical composition containing trimebutine of the present invention, the expression levels of various factors were analyzed by Western blotting. […]

β-catenin = β-catenin S552 phosphorylation and translocation experiments in A2780-SP cells; assay type: cell-based; conditions: 1 μM or 10 μM, 24 hours
Procedure: A2780-SP cells (ovarian cancer stem cells) were plated in an ultra-low attachment round bottom 6-well plate (Corning) at the density of 4×10^5 viable cells per well and cultured in a cancer stem cell medium (CM). The cancer stem cell medium is composed of a neurobasal medium supplemented with 20 ng/ml of bFGF, 10 ng/ml of EGF, 2.5 ng/ml of amphotericin B, HEPES, Glutamax and B27. On the next day of culture, the cells were treated with the compound at the concentration of 1 μM or 10 μM for 24 hours. The control group was treated in the same manner as above for 24 hours with a neurobasal medium (NBM) and a cancer stem cell medium (CM) containing DMSO.
To measure the degree of phosphorylation of β-catenin S552, 100 μl of RIPA buffer (containing 1× protease inhibitor and phosphatase inhibitor) was added to the prepared cells, and the cells were disrupted by shaking once every 5 minutes for a total of 15 minutes. The disrupted cells were centrifuged at 13,000 rpm for 15 minutes to collect only the supernatant protein, and the obtained protein was quantified using a BCA protein quantification kit (Pierece, MA, USA), and a total of 15 μg of the protein was used for Western blotting. NE-PER Nuclear and Cytoplasmic Extraction Reagents (Thermoscientific, #78833) were used to separate cytoplasmic and nuclear proteins. […]

A2780-SP xenograft = A2780-SP xenograft model, tumor formation; assay type: in vivo; conditions: 3 mg/kg, intraperitoneal, nude mouse
Procedure: (§1) In order to confirm the inhibitory effect of the pharmaceutical composition of Examples of the present invention in the ovarian cancer stem cell tumor model, each nude mouse was subcutaneously inoculated with 2×10^6 A2780-SP (ovarian cancer stem cell line) cells. After the implantation, the size of tumor formation was measured using a caliper. When the tumor volume became 100 mm^3 or more, the experimental group was divided into the control group (vehicle) and the pharmaceutical composition of Examples of the present invention treated group (3 mg/kg of trimebutine) and the drug was administered to confirm the effect of the drug. The drug was administered […] through intraperitoneal administration, and the size of the tumor and the weight of the mouse were measured at intervals of 3 to 4 days. Then, all mice were euthanized on the day of the end of the experiment, and finally the size of the tumor and the weight were measured.
(§2) In order to confirm the ovarian cancer treatment effect of the pharmaceutical composition containing trimebutine of the present invention in vivo, an animal model experiment was performed. The specific experimental method is the same as the animal experiment method described in Experimental Protocol 5.

[3] = A2780-SP xenograft model, change in body weight; assay type: in vivo; conditions: 3 mg/kg, intraperitoneal, nude mouse
Procedure: as §1, §2

Structure (SMILES): COC(=O)C1=C(C)NC(C)=C(C(=O)O[C@@H]2CCCN(Cc3ccccc3)C2)[C@@H]1c1cccc([N+](=O)[O-])c1 (racemic) [Comparative Example 1 (benidipine), Benidipine]
GI50 [1]: 2640 nM

Structure (SMILES): COC(=O)C1=C(C)NC(C)=C(C(=O)OCCN2CCN(C(c3ccccc3)c3ccccc3)CC2)C1c1cccc([N+](=O)[O-])c1 (centres unmarked) [Comparative Example 1 (manidipine), Manidipine]
GI50 [1]: 2700 nM | GI50 [2]: ~9670 nM

Structure (SMILES): CCC(COC(=O)c1cc(OC)c(OC)c(OC)c1)(c1ccccc1)N(C)C (centres unmarked) [Example 1, Trimebutine]
viability of A2780-SP cells (ovarian cancer stem cells), result in words [1]: reduced the viability | viability of A2780-SP cells (ovarian cancer stem cells), result in words ([1]; listed as trimebutine): excellent effect of inhibiting the survival of ovarian cancer stem cells | GI50 [1]: 401 nM | selectivity for cancer stem cells rather than cancer cells ([1]; A2780-SP versus A2780, FIGS. 1F and 1G compared with FIGS. 1A to 1E): excellent selectivity | amplitude of BKCa current (BKCa channel): remarkably suppressed | amplitude of Ca current (L-type Ca channel): remarkably suppressed | amplitude of Na current (Na channel): remarkably suppressed | expressions of ALDH, OCT4 and SOX2, the markers related to cancer stemness (ALDH, OCT4 and SOX2): reduced | degree of β-catenin S552 phosphorylation (β-catenin): reduced | translocation of β-catenin into the nucleus (β-catenin): reduced | tumor formation (A2780-SP xenograft): specifically inhibited tumor formation | change in body weight [3]: no change in body weight

The next lines start with the values.

GI50 [1]: 2950 nM
Structure (SMILES): COc1ccc(CN2CCN(C(c3ccc(F)cc3)c3ccc(F)cc3)CC2)c(OC)c1OC [Comparative Example 1 (lomerizine), Lomerizine]

GI50 [1]: 2900 nM
Structure (SMILES): CCOC(=O)C1=C(C)NC(C)=C(C(=O)OCC)C1c1ccccc1/C=C/C(=O)OC(C)(C)C [Comparative Example 1 (lacidipine), Lacidipine]
